Values joined by “and” are separate entries in the source; they are usually repeats but may differ in a detail not shown here. Identical values can stand only once. Marks after values point to notes of the source that are not given here.
How the values were obtained:
CA-MRSA = experiment: MIC (CLSI broth dilution), agent alone; type: cell-based, Staphylococcus aureus; settings: agent alone
Experimental: (§1) VISA (strains 92, 95 and 96), VRSA (strains 105 and 106) and E. coli (strain 69717) isolates were also tested. One MSSA was used as a control. All MICs were assessed using CLSI guidelines. Also assessed was the activity of cefazolin, ceftriazone, meropenem, and a piperacillin/tazobactam combination antibiotic. Minimum inhibitory concentration (MIC) is the lowest concentration of an antimicrobial that will inhibit the visible growth of a microorganism after incubation.
(§2) Antimicrobial Susceptibility Testing: A custom designed panel of antimicrobials was created. […] These agents were obtained as laboratory grade powders from their respective manufacturers. Stock solutions were prepared and dilutions made as described by the Clinical Laboratory Standards Institute (2005 CLSI). Following two subcultures from frozen stock the MICs of the antimicrobial agents for the isolates were determined by the CLSI 2005 approved broth macrodilution method. Briefly, test tubes containing doubling antibiotic dilutions (2 ml per tube) of cation adjusted Mueller-Hinton broth (eg. for Enterobacteriaceae) with or without lysed horse blood (2-5% V/V) [eg. for S. pneumoniae] were inoculated to achieve a final concentration of approximately 5×10^5 CFU/ml and incubated in ambient air for 24 hours prior to reading. Colony counts were performed periodically to confirm inocula. Quality control was performed every two weeks using a variety of ATCC QC organisms including; S. aureus 29213, E. faecalis 29212, E. coli 25922 and P. aeruginosa 27853.
(§3) One MSSA was used as a control. All MICs were assessed using CLSI guidelines.
(§4) One MS SA and ATCC reference strains were used as controls. All MICs were assessed using CLSI guidelines.

HA-MRSA = experiment: MIC (CLSI broth dilution), agent alone; type: cell-based, Staphylococcus aureus; settings: for MIC: agent alone; for PEP35 (MIC): peptide alone
Experimental: as §1, §2, §3, §4

MSSA [1] = experiment: Checkerboard assay (FIC index); type: cell-based, Staphylococcus aureus;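 note: each agent diluted from 0.03 to 4 times its MIC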
Experimental: Checkerboard assays were carried out as described by Bonapace et al.
Diagnostic Microbiology and Infectious Diseases 2002; 44:363-366. In brief, checkerboard assays were performed in 96 well microtitre trays using an 8-by-8 well configuration. […] 96-well custom designed microtitre plates contained 100 ul/well of cation adjusted Mueller-Hinton broth (eg. for Enterobacteriaceae) with or without lysed horse blood (2-5% V/V) [eg. for S. pneumoniae] and were inoculated to achieve a final concentration of approximately 5×10^5 CFU/ml and incubated in ambient air for 24 hours prior to reading. Colony counts were performed periodically to confirm inocula. Quality control was performed every two weeks using a variety of ATCC QC organisms including; S. pneumoniae 49619, S. aureus 29213, E. faecalis 29212, E. coli 25922 and P. aeruginosa 27853. […] All peptides were assessed for synergy with β-lactams and vancomycin. For all antimicrobials as well as the peptides, CLSI criteria were used.
(§5) The fractional inhibitory concentration index (FIC index) was used to interpret synergy, antagonism or additivity/indifference. FIC index=FIC of drug A+FIC of drug B where:
The FIC of drug A and drug B was calculated as follows, FIC drug A=MIC of drug A in combination/MIC of drug A alone and FIC of drug B=MIC of drug B in combination/MIC of drug B alone. Synergy was defined as FIC index ≦0.5, additivity/indifference defined as a FIC between 0.5 and 4 and antagonism defined as an FIC index >4.
(§6) The checkerboard assays were carried out as described by Eliopoulos and Moellering (Chapter 9) in Antibiotic in Laboratory Medicine, Lorian Ed. 1996 as well as Bonapace et al. Diagnostic Microbiology and Infectious Diseases 2002; 44:363-366 and Bonapace et al. Diagnostic Microbiology and Infectious Diseases 2000; 38:43-50. In brief, checkerboard assays were performed in 96 well microtitre trays using an 8-by-8 well configuration. […] 96-well custom designed microtitre plates contained 100 ul/well of cation adjusted Mueller-Hinton broth (eg. for Enterobacteriaceae) with or without lysed horse blood (2-5% V/V) [eg. for S. pneumoniae] and were inoculated to achieve a final concentration of approximately 5×10^5 CFU/ml and incubated in ambient air for 24 hours prior to reading. Colony counts were performed periodically to confirm inocula. Quality control was performed every two weeks using a variety of ATCC QC organisms including; S. pneumoniae 49619, S. aureus 29213, E. faecalis 29212, E. coli 25922 and P. aeruginosa 27853. For all antimicrobials as well as PEP35, CLSI criteria was used.
(§7) The FIC of drug A and drug B is calculated as follows, FIC drug A=MIC of drug A in combination/MIC of drug A alone and FIC of drug B=MIC of drug B in combination/MIC of drug B alone. Synergy is defined as FIC index ≦0.5, additivity/indifference FIC >0.5-4 and antagonism FIC index >4.
(§8) Antimicrobials used included PEP35, cefazolin, ceftriaxone, vancomycin, linezolid, tigecycline and daptomycin versus Gram-positive cocci and PEP35, gentamicin, levofloxacin, piperacillin/tazobactam, meropenem and colistin (Polymyxin E) versus Gram-negative bacilli. These agents were obtained as laboratory grade powders from their respective manufacturers. Stock solutions were prepared and dilutions made as described by the Clinical Laboratory Standards Institute (2005 CLSI).
Organisms included Gram-positive cocci (2 strains of each): Methicillin-susceptible Staphylococcus aureus (MSSA), community-associated (CA) and healthcare-associated (HA) methicillin-resistant Staphylococcus aureus (MRSA), vancomycin-intermediate Staphylococcus aureus (VISA), vancomycin-resistant Staphylococcus aureus (VRSA), methicillin-resistant Staphylococcus epidermidis (MRSE), Streptococcus pyogenes, Streptococcus agalactiae, Streptococcus pneumoniae, Enterococcus faecalis, Enterococcus faecium and vancomycin-resistant enterococcus (VRE). […]

MRSE = experiment: Checkerboard assay (FIC index); type: cell-based, Staphylococcus epidermidis; settings: antibiotic combined with PEP35;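 note: each agent diluted from 0.03 to 4 times its MIC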
Experimental: as §6, §5, §7, §8
Organisms included Gram-positive cocci (2 strains of each): Methicillin-susceptible Staphylococcus aureus (MSSA), community-associated (CA) and healthcare-associated (HA) methicillin-resistant Staphylococcus aureus (MRSA), vancomycin-intermediate Staphylococcus aureus (VISA), vancomycin-resistant Staphylococcus aureus (VRSA), methicillin-resistant Staphylococcus epidermidis (MRSE), Streptococcus pyogenes, Streptococcus agalactiae, Streptococcus pneumoniae, Enterococcus faecalis, Enterococcus faecium and vancomycin-resistant enterococcus (VRE). Gram-negative bacilli tested (2 strains of each) included: E. coli, Pseudomonas aeruginosa, Klebsiella pneumoniae, K. oxytoca, Enterobacter cloacae, P. mirabilis and Stenotrophomonas maltophilia. MIC testing, following two subcultures from frozen stock were determined by the CLSI 2005 approved broth microdilution method.

MSSA [2] = experiment: MIC (CLSI broth dilution), agent alone; type: cell-based, Staphylococcus aureus; settings: for MIC: agent alone
Experimental: as §1, §2, §3, §4

[3] = HA-MRSA 70798 (USA100/800), in µg/mL
[4] = antibiotic combined with PEP35, MSSA 79333
[5] = antibiotic combined with PEP35, MSSA 83424
[6] = CA-MRSA 69615 (USA400), in µg/mL
[7] = CA-MRSA 70857 (USA400), in µg/mL
[8] = HA-MRSA 77090 (USA100/800), in µg/mL

Compound | MIC (HA-MRSA; [3]) | Avg ΣFIC (range) (MSSA [1]; [4]) | Avg ΣFIC (range) (MRSE; MRSE 79617) | Avg ΣFIC (range) (MRSE; MRSE 83100) | Avg ΣFIC (range) (MSSA [1]; [5]) | MIC (CA-MRSA; [6]) | MIC (HA-MRSA; [8]) | also measured
C[C@@H](O)[C@H]1C(=O)N2C(C(=O)O)=C(S[C@@H]3CN[C@H](C(=O)N(C)C)C3)[C@H](C)[C@H]12 [Meropenem] | 64 | 0.52 | – | – | – | – | – | MIC (CA-MRSA; CA-MRSA 70857 (USA400)): 2 and 4/4; MIC (HA-MRSA; HA-MRSA 77098 (USA100/800)): 64/64; Avg ΣFIC (range) (MSSA [1]; β-lactam combined with HybPEP35-1, MSSA 79333): 1.11; Avg ΣFIC (range) (MSSA [1]; β-lactam combined with PEP-52, MSSA 79333): >1*; Avg ΣFIC (range) (MSSA [1]; β-lactam combined with Scrambled PEP35, MSSA 79333): 1.11
CN[C@H](CC(C)C)C(=O)N[C@H]1C(=O)N[C@@H](CC(N)=O)C(=O)N[C@H]2C(=O)N[C@H]3C(=O)N[C@H](C(=O)N[C@H](C(=O)O)c4cc(O)cc(O)c4-c4cc3ccc4O)[C@H](O)c3ccc(c(Cl)c3)Oc3cc2cc(c3O[C@@H]2O[C@H](CO)[C@@H](O)[C@H](O)[C@H]2O[C@H]2C[C@](C)(N)[C@H](O)[C@H](C)O2)Oc2ccc(cc2Cl)[C@H]1O [Vancomycin] | – | 1.11 (1.0-1.25) | 0.99 (0.62-1.25) | 0.60 (0.31.12) rpt | 1.19 (1.03-1.5) | – | – | MIC (CA-MRSA; CA-MRSA 69615 (USA400)): 1/1; MIC (HA-MRSA; HA-MRSA 77090 (USA100/800)): 1/1; MIC (MSSA [2]; MSSA 79333): 1 and 0.5
CC(=O)NC[C@H]1CN(c2ccc(N3CCOCC3)c(F)c2)C(=O)O1 [Linezolid, linezolid] | – | 1.05 (0.75-1.25) | 1.10 (0.56-1.5) | 0.73 (0.515-1.12) | 0.74 (0.515-1.06) | – | – | –
KKKKKLQLQLNLIKKKVQVSVVVVRRH (Reordered human peptide sequence) [Scrambled PEP35] | 256 | – | – | – | – | 256 | 512 | MIC (CA-MRSA; [7]): 256; MIC (MSSA [2]; MSSA 79333, in µg/mL): 64
LKQKIKHVVKLKVVVKLRSQLVKRKQN (listed as Mus sp.) [PEP35] | 512 | – | – | – | – | 512 | 256 and 512 | MIC (CA-MRSA; CA-MRSA (CMRSA7/USA400/MW2) isolates, one per table line): 512 µg/mL; PEP35 (MIC) (HA-MRSA; HA-MRSA (CMRSA1/USA600)): 256 µg/mL; PEP35 (MIC) (HA-MRSA; HA-MRSA (CMRSA5/USA500)): 512 µg/mL; PEP35 (MIC) (HA-MRSA; HA-MRSA (CMRSA8)): 1024 µg/mL; MIC (MSSA [2]; MSSA 79333, in µg/mL): 128 and 256; PEP35 (MIC) (MSSA [2]; S. aureus (printed without strain; control row), peptide alone): 1024 µg/mL; MIC (MSSA [2]; S. aureus control): 512 µg/mL
piperacillin/tazobactam | 4 | – | – | – | – | 32 | 16 | MIC (CA-MRSA; [7]): 32; MIC (MSSA [2]; MSSA 79333): ≦1
CN(C)c1cc(NC(=O)CNC(C)(C)C)c(O)c2c1C[C@H]1C[C@H]3[C@H](N(C)C)C(O)=C(C(N)=O)C(=O)[C@@]3(O)C(O)=C1C2=O [Tigecycline, tigecycline] | – | 0.99 (0.62-1.5) | 1.19 (1.03-1.5) | 1.21 (1.03-1.5) | 0.85 (0.5-1.12) | – | – | –
CCCCCCCCCC(=O)N[C@@H](Cc1c[nH]c2ccccc12)C(=O)N[C@H](CC(N)=O)C(=O)N[C@@H](CC(=O)O)C(=O)N[C@@H]1C(=O)NCC(=O)N[C@@H](CCCN)C(=O)N[C@@H](CC(=O)O)C(=O)N[C@H](C)C(=O)N[C@@H](CC(=O)O)C(=O)NCC(=O)N[C@H](CO)C(=O)N[C@@H]([C@H](C)CC(=O)O)C(=O)N[C@@H](CC(=O)c2ccccc2N)C(=O)O[C@@H]1C [Daptomycin, daptomycin] | – | 1.19 (1.03-1.5) | 1.19 (1.03-1.5) | 1.1 (1.0-1.25) | 1.58 (1.015-2.5) | – | – | –

Reference: patent US9751919B2, “Antimicrobial compositions comprising a hyaluronic acid binding peptide and a β-lactam antibiotic” (priority 2012, dated 2017)
